Measured values: patent US20260116868A1 (Arcus Biosciences, Inc., priority 2023, published 2026)

What follows are compounds tested against T1, Cbl-b (Homo sapiens, UniProt Q13191) (assay: Cbl-b probe displacement HTRF binding assay). Details: 0.4 nM Cbl-b, 150 nM BODIPY probe.
T1 construct: biotin (biotinylated protein)
Protocol: The affinity with which compounds of the present disclosure bind to Cbl-b was assessed using probe displacement homologous time resolved fluorescence (HTRF) assays. The assays used a BODIPY™ conjugated probe (Example 54 from WO 2020264398) and biotinylated Cbl-b. The assays were performed in assay buffer consisting of 20 mM Hepes, 150 mM NaCl, 0.01% Triton X-100, 0.5 mM TCEP, 0.01% BSA. On the day of the assay, a 20 point, 1:2 master serial dilution of each compound was prepared in DMSO to span a final concentration range of […] to 0 nM. Two hundred nanoliters of diluted compound was added to each well of a 384-well plate. Fifteen microliters of biotinylated- Cbl-b resuspended in assay buffer were added to each well and the plate incubated for 60 minutes at room temperature prior to addition of 5 μL of BODIPY™ probe in assay buffer. Final assay conditions included 0.4 nM of Cbl-b and 150 nM of BODIPY™ probe. After a further 15 minutes of incubation at room temperature, 5 μl of Streptavidin-Terbium cryptate reagent at 5-fold final concentration was added to each well of the 384-well plate. Binding of a probe to Cbl-b results in an increase of HTRF signal. HTRF signal was measured by Envision plate reader, while competition of a compound of the present disclosure with probe results in a decrease of signal. Percentage maximum activity in each test well was calculated based on DMSO (maximum activity, 0% displacement) and no protein control wells (baseline activity, 100% displacement). Binding affinity was determined from a dose response curve fitted using a standard four parameter fit equation. See Table 7 for data for compounds (Cbl-b Binding (IC50)).

T1 sequence (Q13191 whole entry, species assumed): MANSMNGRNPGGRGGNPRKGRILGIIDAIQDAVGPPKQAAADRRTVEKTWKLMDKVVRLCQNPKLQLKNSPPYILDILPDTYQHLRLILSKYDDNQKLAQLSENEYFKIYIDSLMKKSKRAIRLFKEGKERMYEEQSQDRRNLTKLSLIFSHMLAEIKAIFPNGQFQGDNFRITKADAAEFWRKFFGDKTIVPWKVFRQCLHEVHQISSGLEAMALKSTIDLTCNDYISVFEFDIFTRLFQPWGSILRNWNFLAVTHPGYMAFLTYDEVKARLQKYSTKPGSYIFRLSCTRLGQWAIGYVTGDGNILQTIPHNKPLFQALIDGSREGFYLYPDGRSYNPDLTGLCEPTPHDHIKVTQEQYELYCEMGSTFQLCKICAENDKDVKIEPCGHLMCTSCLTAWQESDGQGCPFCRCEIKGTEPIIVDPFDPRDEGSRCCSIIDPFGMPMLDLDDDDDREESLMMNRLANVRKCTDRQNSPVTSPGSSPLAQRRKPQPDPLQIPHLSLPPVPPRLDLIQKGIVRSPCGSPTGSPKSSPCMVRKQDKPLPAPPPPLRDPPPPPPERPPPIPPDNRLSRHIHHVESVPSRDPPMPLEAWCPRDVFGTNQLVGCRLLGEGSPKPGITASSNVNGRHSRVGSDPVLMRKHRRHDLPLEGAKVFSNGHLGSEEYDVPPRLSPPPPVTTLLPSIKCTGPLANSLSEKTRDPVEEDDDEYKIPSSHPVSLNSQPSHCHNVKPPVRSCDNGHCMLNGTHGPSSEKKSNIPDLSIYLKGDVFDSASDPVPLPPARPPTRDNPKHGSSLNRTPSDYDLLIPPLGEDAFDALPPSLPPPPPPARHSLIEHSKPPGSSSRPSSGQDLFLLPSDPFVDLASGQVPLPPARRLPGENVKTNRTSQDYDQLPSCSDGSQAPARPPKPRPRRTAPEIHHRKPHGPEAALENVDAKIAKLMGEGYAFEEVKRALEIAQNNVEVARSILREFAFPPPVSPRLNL

Row | SMILES | IC50 [nM]
1 | CO[C@@H](C)CNCc1cc(C(=O)Nc2cc(-c3ccc(C#N)cc3C(=O)N3CC(F)(F)C3)cc(OCC(F)F)n2)c(=O)n(C2CC2)c1 [Example 131, N-(4-{4-cyano-2-[(3,3-difluoro-1-azetidinyl)carbonyl]phenyl}-6-(2,2-difluoroethoxy)-2-pyridyl)-1-cyclopropyl-5-{[(S)-2-methoxypropylamino]methyl}-2-oxo-1,2-dihydronicotinamide] | < 100
2 | N#Cc1ccc(-c2cc(NC(=O)c3cc(CNC[C@@H]4CCCO4)cn(C4CC4)c3=O)nc(OCC(F)F)c2)c(C(=O)N2CC(F)(F)C2)c1 [Example 132, N-(4-{4-cyano-2-[(3,3-difluoro-1-azetidinyl)carbonyl]phenyl}-6-(2,2-difluoroethoxy)-2-pyridyl)-1-cyclopropyl-2-oxo-5-[({[(S)-perhydro-2-furyl]methyl}amino)methyl]-1,2-dihydronicotinamide] | < 100
3 | O=C(Nc1cc(-c2ccc(Cl)cc2C(=O)N2CC(F)(F)C2)cc(C2CC2)n1)c1cc(CNC[C@@H]2COCCO2)cn(C2CC2)c1=O [Example 133, N-(4-{4-chloro-2-[(3,3-difluoro-1-azetidinyl)carbonyl]phenyl}-6-cyclopropyl-2-pyridyl)-1-cyclopropyl-5-[({[(R)-1,4-dioxan-2-yl]methyl}amino)methyl]-2-oxo-1,2-dihydronicotinamide] | < 100
4 | CC(C)CNCc1cc(C(=O)Nc2cc(-c3ccc(Cl)cc3C(=O)N3CC(F)(F)C3)cc(C3CC3)n2)c(=O)n(C2CC2)c1 [Example 134, N-(4-{4-chloro-2-[(3,3-difluoro-1-azetidinyl)carbonyl]phenyl}-6-cyclopropyl-2-pyridyl)-1-cyclopropyl-5-[(isobutylamino)methyl]-2-oxo-1,2-dihydronicotinamide] | < 100
5 | C[C@H](NCc1cc(C(=O)Nc2cc(-c3ccc(Cl)cc3C(=O)N3CC(F)(F)C3)cc(C3CC3)n2)c(=O)n(C2CC2)c1)C1CC1 [Example 135, N-(4-{4-chloro-2-[(3,3-difluoro-1-azetidinyl)carbonyl]phenyl}-6-cyclopropyl-2-pyridyl)-1-cyclopropyl-5-{[(S)-1-cyclopropylethylamino]methyl}-2-oxo-1,2-dihydronicotinamide] | < 100
6 | O=C(Nc1cc(-c2ccc(Cl)cc2C(=O)N2CC(F)(F)C2)cc(C2CC2)n1)c1cc(CNCCCF)cn(C2CC2)c1=O [Example 136, N-(4-{4-chloro-2-[(3,3-difluoro-1-azetidinyl)carbonyl]phenyl}-6-cyclopropyl-2-pyridyl)-1-cyclopropyl-5-[(3-fluoropropylamino)methyl]-2-oxo-1,2-dihydronicotinamide] | < 100
7 | CO[C@@H](C)CNCc1cc(C(=O)Nc2cc(-c3ccc(F)cc3C(=O)N3CC(F)(F)C3)cc(OC(C)C)n2)c(=O)n(C2CC2)c1 [Example 137, N-(4-{2-[(3,3-difluoro-1-azetidinyl)carbonyl]-4-fluorophenyl}-6-isopropoxy-2-pyridyl)-1-cyclopropyl-5-{[(S)-2-methoxypropylamino]methyl}-2-oxo-1,2-dihydronicotinamide] | < 100
8 | CC(C)Oc1cc(-c2ccc(F)cc2C(=O)N2CC(F)(F)C2)cc(NC(=O)c2cc(CNC[C@@H]3CCCO3)cn(C3CC3)c2=O)n1 [Example 138, N-(4-{2-[(3,3-difluoro-1-azetidinyl)carbonyl]-4-fluorophenyl}-6-isopropoxy-2-pyridyl)-1-cyclopropyl-2-oxo-5-[({[(S)-perhydro-2-furyl]methyl}amino)methyl]-1,2-dihydronicotinamide] | < 100
9 | CC(C)Oc1cc(-c2ccc(F)cc2C(=O)N2CC(F)(F)C2)cc(NC(=O)c2cc(CNCC3CC3)cn(C3CC3)c2=O)n1 [Example 139, N-(4-{2-[(3,3-difluoro-1-azetidinyl)carbonyl]-4-fluorophenyl}-6-isopropoxy-2-pyridyl)-1-cyclopropyl-5-{[(cyclopropylmethyl)amino]methyl}-2-oxo-1,2-dihydronicotinamide] | < 100
10 | CC(C)Oc1cc(-c2ccc(C#N)cc2C(=O)N2CC(F)(F)C2)cc(NC(=O)c2cc(CNCC3(F)CCC3)cn(C3CC3)c2=O)n1 [Example 141] | < 100
11 | CO[C@@H](C)[C@H](C)NCc1cc(C(=O)Nc2cc(-c3ccc(C#N)cc3C(=O)N3CC(F)(F)C3)cc(OC(C)C)n2)c(=O)n(C2CC2)c1 [Example 142] | < 100
12 | CC(C)Oc1cc(-c2ccc(C#N)cc2C(=O)N2CC(F)(F)C2)cc(NC(=O)c2cc(CN[C@@H](C)C3CCC3)cn(C3CC3)c2=O)n1 [Example 143, N-(4-{4-cyano-2-[(3,3-difluoro-1-azetidinyl)carbonyl]phenyl}-6-isopropoxy-2-pyridyl)-5-{[(S)-1-cyclobutylethylamino]methyl}-1-cyclopropyl-2-oxo-1,2-dihydronicotinamide] | < 100
13 | O=C(Nc1cc(-c2c(F)cc(Cl)cc2C(=O)N2CC(F)(F)C2)cc(C2CC2)n1)c1cc(CNC[C@@H]2CCCO2)cn(C2CC2)c1=O [Example 145, N-(4-{4-chloro-2-[(3,3-difluoro-1-azetidinyl)carbonyl]-6-fluorophenyl}-6-cyclopropyl-2-pyridyl)-1-cyclopropyl-2-oxo-5-[({[(S)-perhydro-2-furyl]methyl}amino)methyl]-1,2-dihydronicotinamide] | < 100
14 | O=C(Nc1cc(-c2c(F)cc(Cl)cc2C(=O)N2CC(F)(F)C2)cc(C2CC2)n1)c1cc(CNC[C@@H]2CCCCO2)cn(C2CC2)c1=O [Example 146, N-(4-{4-chloro-2-[(3,3-difluoro-1-azetidinyl)carbonyl]-6-fluorophenyl}-6-cyclopropyl-2-pyridyl)-1-cyclopropyl-2-oxo-5-[({[(S)-tetrahydro-2H-pyran-2-yl]methyl}amino)methyl]-1,2-dihydronicotinamide] | < 100

More lines, now with the values ahead:

Row | IC50 [nM] | SMILES
15 | < 100 | COCCNCc1cc(C(=O)Nc2cc(-c3c(F)cc(Cl)cc3C(=O)N3CC(F)(F)C3)cc(C3CC3)n2)c(=O)n(C2CC2)c1 [Example 147, N-(4-{4-chloro-2-[(3,3-difluoro-1-azetidinyl)carbonyl]-6-fluorophenyl}-6-cyclopropyl-2-pyridyl)-1-cyclopropyl-5-[(2-methoxyethylamino)methyl]-2-oxo-1,2-dihydronicotinamide]
16 | < 100 | O=C(Nc1cc(-c2c(F)cc(Cl)cc2C(=O)N2CC(F)(F)C2)cc(C2CC2)n1)c1cc(CNCC2CC2)cn(C2CC2)c1=O [Example 148, N-(4-{4-chloro-2-[(3,3-difluoro-1-azetidinyl)carbonyl]-6-fluorophenyl}-6-cyclopropyl-2-pyridyl)-1-cyclopropyl-5-{[(cyclopropylmethyl)amino]methyl}-2-oxo-1,2-dihydronicotinamide]
17 | < 100 | CO[C@@H](C)CNCc1cc(C(=O)Nc2cc(-c3ccc(OC(F)F)cc3C(=O)N3CC(F)(F)C3)cc(Cl)n2)c(=O)n(C2CC2)c1 [Example 149, N-(6-chloro-4-{2-[(3,3-difluoro-1-azetidinyl)carbonyl]-4-difluoromethoxyphenyl}-2-pyridyl)-1-cyclopropyl-5-{[(S)-2-methoxypropylamino]methyl}-2-oxo-1,2-dihydronicotinamide]
18 | < 100 | COc1ccc(-c2cc(NC(=O)c3cc(CNC[C@H](C)OC)cn(C4CC4)c3=O)nc(C3CC3)c2)c(C(=O)N2CC(F)(F)C2)c1 [Example 150, N-(6-Cyclopropyl-4-{2-[(3,3-difluoro-1-azetidinyl)carbonyl]-4-methoxyphenyl}-2-pyridyl)-1-cyclopropyl-5-{[(S)-2-methoxypropylamino]methyl}-2-oxo-1,2-dihydronicotinamide]
19 | < 100 | COc1ccc(-c2cc(NC(=O)c3cc(CNCC(C)C)cn(C4CC4)c3=O)nc(C3CC3)c2)c(C(=O)N2CC(F)(F)C2)c1 [Example 151, N-(6-Cyclopropyl-4-{2-[(3,3-difluoro-1-azetidinyl)carbonyl]-4-methoxyphenyl}-2-pyridyl)-1-cyclopropyl-5-[(isobutylamino)methyl]-2-oxo-1,2-dihydronicotinamide]
20 | < 100 | COc1ccc(-c2cc(NC(=O)c3cc(CN[C@@H](C)[C@H](C)OC)cn(C4CC4)c3=O)nc(C3CC3)c2)c(C(=O)N2CC(F)(F)C2)c1 [Example 152, N-(6-Cyclopropyl-4-{2-[(3,3-difluoro-1-azetidinyl)carbonyl]-4-methoxyphenyl}-2-pyridyl)-1-cyclopropyl-5-{[(1S,2S)-2-methoxy-1-methylpropylamino]methyl}-2-oxo-1,2-dihydronicotinamide]
21 | < 100 | COc1ccc(-c2cc(NC(=O)c3cc(CNC[C@@H]4CCCO4)cn(C4CC4)c3=O)nc(C3CC3)c2)c(C(=O)N2CC(F)(F)C2)c1 [Example 153, N-(6-Cyclopropyl-4-{2-[(3,3-difluoro-1-azetidinyl)carbonyl]-4-methoxyphenyl}-2-pyridyl)-1-cyclopropyl-2-oxo-5-[({[(S)-perhydro-2-furyl]methyl}amino)methyl]-1,2-dihydronicotinamide]
